# Key:
# [1] = test system: inositol trisphosphate (InsP3) levels in Dictyostelium; details: Eickholt et al., 2005; cited from earlier work
# [2] = test system: phosphoinositide (PIP and PIP2) turnover in Dictyostelium AX2 cells; experiment: Dictyostelium phospholipid labelling (PIP and PIP2 turnover); assay type: cell-based, Dictyostelium discoideum; details: wild type Dictyostelium; for activity at 500 µM: Dictyostelium, 0.1 h, read-out: PIP Level (% control), Table 1, 0.5 mM compound, 3 min pre-treatment + 6 min labelling
# Method: Phospholipid labelling was quantified using a Typhoon phosphor-imager. Even loading was determined using total lipid stain with copper sulphate.
# [3] = test system: inositol levels in Dictyostelium cells; experiment: Inositol levels in treated Dictyostelium cells; assay type: cell-based, Dictyostelium discoideum; details: time period causing phosphoinositide attenuation (9 min)
# Method: Following a 6 min incubation, labelling solution was removed and cells were lysed in acidified methanol and phospholipids were separated as previously detailed (Williams et al., 1999). Phospholipid labelling was quantified using a Typhoon phosphor-imager. Even loading was determined using total lipid stain with copper sulphate. Inositol levels were measured from five hour developed cells (similar to phospholipid labelling), following lyophilisation, as previously described (Maslanski & Busa, 1990).
# [4] = test system: self-sustaining status epilepticus in Sprague Dawley rats; experiment: In vivo status epilepticus (perforant path stimulation); set-up: species or system rat; details: 400 mg/kg
# Method: This method has been described in detail previously (Walker et al., 1999). In brief, male Sprague Dawley rats […] were anesthetized with 1-2% isoflurane in O2. An earth electrode was positioned subcutaneously, and a monopolar recording electrode was implanted stereotactically into the right hippocampus (coordinates, 2.5 mm lateral and 4 mm caudal from bregma). A bipolar stimulating electrode was implanted in the right hemisphere and advanced into the angular bundle (coordinates, 4.4 mm lateral and 8.1 mm caudal from bregma) to stimulate the perforant path. The depths of the electrodes were adjusted to maximize the slope of the dentate granule cell field potential (Guo et al., 1999). The electrodes were held in place with dental acrylic and skull screws. The animals were allowed to recover from anaesthesia. Seven days later, the perforant path was electrically stimulated with 4-5 mA 50 μsec monopolar pulses at 20 Hz for 2 hr; this induced self-sustaining status epilepticus. After 10 min of self-sustaining status epilepticus, compounds or vehicle were administered and the behavioural seizures and EEG were monitored for 3 hours. At this point diazepam (10 mg/kg) was administered to all animals to stop the status epilepticus. Groups were compared by ANOVA followed by post-hoc testing using Tukey test, using SPSS.
# [5] = test system: release of 3H arachidonic acid / palmitic acid radiolabel from Dictyostelium cells; experiment: Fatty acid release (3H radiolabel release from labelled cells); assay type: cell-based, Dictyostelium discoideum
# [6] = test system: low magnesium-induced burst discharges in entorhinal cortex-hippocampal slices; experiment: In vitro low Mg2+ acute seizure model, entorhinal cortex-hippocampus slices; assay type: cell-based, rat; details: 1 mM, 30-40 minutes after application
# Method: The rats (p21) were decapitated after killing by intraperitoneal injection with an overdose of pentobarbitone (500 mg/kg). The brain was removed and placed in ice-cold sucrose solution in mM: NaCl 87, KCl 2.5, MgCl2 7, CaCl2 0.5, NaH2PO4 1.25, sucrose 75, glucose 25, equilibrated with 95% 02/5% CO2 (pH 7.4). Horizontal combined entorhinal cortex-hippocampus slices (350 μm) were prepared with a Leica vibratome (Leica V T1200S) and were then stored in an interface chamber that contained artificial cerebrospinal fluid solution (aCSF) containing in mM: NaCl 119, KCl 2.5, MgSO4 4, CaCl2 4, NaHCO326.2, NaH2PO4 1, glucose 11, and gassed with 95% O2/5% CO2. They were stored for over one hour before being transferred to a submersion recording chamber continually perfused with carbogenated aCSF for recording. Field potential recordings were made by placing glass microelectrodes (˜1-2 MΩ) filled with aCSF solution in stratum radiatum of CA1. Bipolar stimulating electrodes were positioned in the Schaffer collateral/commissural fibre pathway in stratum radiatum to confirm slice viability. In the PTZ acute seizure model, PTZ (2 mM) was added to the perfusate and [K+] was increased to 6 mM in order to induce epileptiform activity (Armand et al., 1998). […] Anticonvulsant effects were evaluated by measuring the variation of frequency of the discharges every minute. […]
# [7] = test system: uptake of 3H arachidonic acid / palmitic acid into Dictyostelium cells; experiment: Fatty acid uptake (3H radiolabel incorporation into cells); assay type: cell-based, Dictyostelium discoideum; details: 3H-AA; FIG. 9
# [8] = test system: PTZ-induced epileptiform activity in entorhinal cortex-hippocampal slices; experiment: In vitro PTZ acute seizure model, entorhinal cortex-hippocampus slices; assay type: cell-based, rat; details: PTZ 2 mM, [K+] 6 mM; compounds equimolar 1 mM; 30 to 40 minutes after application
# Method: The rats (p21) were decapitated after killing by intraperitoneal injection with an overdose of pentobarbitone (500 mg/kg). The brain was removed and placed in ice-cold sucrose solution in mM: NaCl 87, KCl 2.5, MgCl2 7, CaCl2 0.5, NaH2PO4 1.25, sucrose 75, glucose 25, equilibrated with 95% 02/5% CO2 (pH 7.4). Horizontal combined entorhinal cortex-hippocampus slices (350 μm) were prepared with a Leica vibratome (Leica V T1200S) and were then stored in an interface chamber that contained artificial cerebrospinal fluid solution (aCSF) containing in mM: NaCl 119, KCl 2.5, MgSO4 4, CaCl2 4, NaHCO326.2, NaH2PO4 1, glucose 11, and gassed with 95% O2/5% CO2. They were stored for over one hour before being transferred to a submersion recording chamber continually perfused with carbogenated aCSF for recording. Field potential recordings were made by placing glass microelectrodes (˜1-2 MΩ) filled with aCSF solution in stratum radiatum of CA1. Bipolar stimulating electrodes were positioned in the Schaffer collateral/commissural fibre pathway in stratum radiatum to confirm slice viability. In the PTZ acute seizure model, PTZ (2 mM) was added to the perfusate and [K+] was increased to 6 mM in order to induce epileptiform activity (Armand et al., 1998). In the low Mg^2+ acute seizure model, Mg^2+ free aCSF was applied to generate rhythmic short recurrent discharges. Novel anticonvulsants were applied once the frequency and amplitude of the epileptiform discharges were stable over a period of 10 min. Anticonvulsant effects were evaluated by measuring the variation of frequency of the discharges every minute. The data acquired from the 30 to 40 minutes after application novel anticonvulsants were compared by ANOVA followed by post-hoc testing using Tukey test, using SPSS statistical analysis.
# [9] = test system: self-sustaining status epilepticus in Sprague Dawley rats; details: previously shown (Chang et al., 2009); cited from earlier work
# [10] = target: T1, human myo-inositol synthase (Homo sapiens, UniProt Q9NPH2); details: Shaltiel et al., 2004, 2007a; cited from earlier work
# T1 sequence (Q9NPH2 1-558): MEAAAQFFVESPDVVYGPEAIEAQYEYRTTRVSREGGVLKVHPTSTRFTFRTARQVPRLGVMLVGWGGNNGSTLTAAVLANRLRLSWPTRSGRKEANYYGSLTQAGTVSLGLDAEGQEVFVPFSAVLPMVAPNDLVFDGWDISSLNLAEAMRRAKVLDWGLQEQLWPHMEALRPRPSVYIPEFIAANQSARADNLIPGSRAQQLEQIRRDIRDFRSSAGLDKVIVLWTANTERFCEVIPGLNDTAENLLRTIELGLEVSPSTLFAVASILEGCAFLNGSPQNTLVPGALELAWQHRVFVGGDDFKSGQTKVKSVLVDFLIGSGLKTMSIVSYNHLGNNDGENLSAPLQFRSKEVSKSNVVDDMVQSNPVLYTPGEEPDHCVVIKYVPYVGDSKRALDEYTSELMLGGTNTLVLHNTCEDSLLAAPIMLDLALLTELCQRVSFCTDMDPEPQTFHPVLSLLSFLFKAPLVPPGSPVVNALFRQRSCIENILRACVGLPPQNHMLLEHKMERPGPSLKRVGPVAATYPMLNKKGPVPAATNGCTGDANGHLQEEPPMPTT
structure (smiles),measurement,setting,value
CCC=C(C)C(=O)O [2-methyl-2-pentenoic acid],InsP3 depletion,[1],strong InsP3 depletion
same,activity at 500 µM,[2],14.8%
CCCCC(C)CCC(=O)O (centres unmarked) [4-methyloctanoic acid],reduction in inositol levels,[3],do not acutely deplete inositol
same,animals in which status epilepticus terminated (spike frequency of less than 1 Hz),[4],all
same,seizure control in words,[4]; 3 hour test period,protected against seizures over the test period
same,animals in which seizures completely stopped,"[4]; after 2 hours, 7 animals per group",7 animals
same,animals in which seizure stop was maintained,[4]; by three hours,five out of seven
same,mean spike frequency,[4]; first hour,39.3±11.3%
same,mean spike frequency,[4]; second hour,18.1±10.3%
same,mean spike frequency,[4]; third hour,26.9±12.3%
same,inhibitory effect on radiolabel release,"[5]; 3H-AA, FIG. 9",weak
same,activity at 500 µM,"[5]; Dictyostelium, 0.5 h, Table 3, 3H-AA labelled cells, 30 min, 0.5 mM treatment, read-out: AA release [% of control]",66%
same,frequency of low magnesium-induced burst discharges,[6],almost abolished
same,frequency of low magnesium-induced burst discharges,[6]; listed as 4-MO,1.6±3.1 % of baseline
same,effect on 3H-AA uptake compared with VPA,[7],reduced effect on uptake
same,activity at 500 µM,[2],12%
same,reduction of PIP2 signalling,[2]; Table 1,93%
same,reduction of PIP signalling,[2]; Table 1,88%
same,frequency of epileptiform discharges (seizure discharge frequency),[8],49.1±4.4%
O=C1NC(=O)C(c2ccccc2)(c2ccccc2)N1 [phenytoin],response of the status epilepticus model,[9],resistant
"CCCC(CCC)C(N)=O [valpromide, 2-propylpentamide, reference compound]",inhibition of human myo-inositol synthase,[10],weak inhibition
same,radiolabel release activity relative to control,"[5]; Table 3, 30 min, 0.5 mM",virtually no inhibition
same,activity at 500 µM,[2],69.3%
